Measured values reported in patent publication US6410541B2, “Compounds useful for inhibition of farnesyl protein transferase” (Schering Corporation, priority 1997, dated 2002).

Columns and labels:
[1] = target: farnesyl protein transferase (UniProt Q02293+Q04631); assay: FPT IC50 (inhibition of farnesyl protein transferase, in vitro enzyme assay); assay type: biochemical; conditions: for IC50: in vitro enzyme assay per WO 95/10516
Procedure: (§1) FPT IC50 (inhibition of farnesyl protein transferase, in vitro enzyme assay) and COS Cell IC50 (Cell-Based Assay) were determined following the assay procedures described in WO 95/10516, published Apr. 20. 1995. GGFT IC50 (inhibition of geranylgeranyl protein transferase, in vitro enzyme assay), Cell Mat Assay, and anti-tumor activity (in vivo anti-tumor studies) could be determined by the assay procedures described in WO 95/10516. The disclosure of WO 95/10516 is incorporated herein by reference thereto.
In Table 10, “nM” represents nanomolar.

COS Cell = COS Cell IC50 (Cell-Based Assay); conditions: COS cells, cell-based assay per WO 95/10516
Procedure: as §1

Row | Structure (SMILES) | IC50 [1] | further results
1 | O=C1CCC(CC(=O)N2CCC([C@H]3c4ncc(Br)cc4CCc4cc(Cl)cc(Br)c43)CC2)CC1 [Compound 13.0] | 2.2 nM | –
2 | O=C1CCN(CC(=O)N2CCC([C@H]3c4ncc(Br)cc4CCc4cc(Cl)cc(Br)c43)CC2)CC1 [Compound 14.0] | 2.6 nM | –
3 | COc1ccc2c(c1)CC(CC(=O)N1CCC([C@H]3c4ncc(Br)cc4CCc4cc(Cl)cc(Br)c43)CC1)C2=O (stereo partly shown) [Compound 17.0B] | – | FPT inhibition at 140 nM (printed in FPT IC50 column) ([1]; at 140 nM): 32% at 140
4 | O=C1CCCCC1CC(=O)N1CCC([C@H]2c3ncc(Br)cc3CCc3cc(Cl)cc(Br)c32)CC1 (stereo partly shown) [Compound 18.0] | 5 nM | –
5 | O=C1CCCCC1CCC(=O)N1CCC([C@H]2c3ncc(Br)cc3CCc3cc(Cl)cc(Br)c32)CC1 (stereo partly shown) [Compound 19.0] | 10.7 nM | –
6 | C[C@]1(CCC(=O)N2CCC([C@H]3c4ncc(Br)cc4CCc4cc(Cl)cc(Br)c43)CC2)CCCCC1=O [Compound 20.0] | 7 nM | –
7 | O=C(C=C1CCC2(CC1)OCCO2)N1CCC([C@H]2c3ncc(Br)cc3CCc3cc(Cl)cc(Br)c32)CC1 [Compound 21.0] | 10.7 nM | –
8 | O=C(CC1CCC(=NO)CC1)N1CCC([C@H]2c3ncc(Br)cc3CCc3cc(Cl)cc(Br)c32)CC1 (stereo partly shown) [Compound 23.0] | 2.7 nM | –
9 | O=C(CC1CCC2(CC1)OCCO2)N1CCC([C@H]2c3ncc(Br)cc3CCc3cc(Cl)cc(Br)c32)CC1 [Compound 24.0] | 4.7 nM | –
10 | CON=C1CCC(CC(=O)N2CCC([C@H]3c4ncc(Br)cc4CCc4cc(Cl)cc(Br)c43)CC2)CC1 (stereo partly shown) [Compound 25.0] | 4.4 nM | –
11 | O=C(CN1CCC(=NO)CC1)N1CCC([C@H]2c3ncc(Br)cc3CCc3cc(Cl)cc(Br)c32)CC1 [Compound 26.0] | 6 nM | –
12 | CON=C1CCN(CC(=O)N2CCC([C@H]3c4ncc(Br)cc4CCc4cc(Cl)cc(Br)c43)CC2)CC1 [Compound 27.0] | 6.7 nM | –
13 | O=C(CN1CCC2(CC1)SCCS2)N1CCC([C@H]2c3ncc(Br)cc3CCc3cc(Cl)cc(Br)c32)CC1 [Compound 28.0] | 35 nM | –
14 | NC(=O)NN=C1CCC(CC(=O)N2CCC([C@H]3c4ncc(Br)cc4CCc4cc(Cl)cc(Br)c43)CC2)CC1 (stereo partly shown) [Compound 29.0] | 3 nM | –
15 | CC(=O)NN=C1CCC(CC(=O)N2CCC([C@H]3c4ncc(Br)cc4CCc4cc(Cl)cc(Br)c43)CC2)CC1 (stereo partly shown) [Compound 30.0] | 4.3 nM | –
16 | O=C(O)CON=C1CCC(CC(=O)N2CCC([C@H]3c4ncc(Br)cc4CCc4cc(Cl)cc(Br)c43)CC2)CC1 (stereo partly shown) [Compound 31.0] | 1.9 nM | –
17 | CC(C)(C)[Si](C)(C)OCCON=C1CCC(CC(=O)N2CCC([C@H]3c4ncc(Br)cc4CCc4cc(Cl)cc(Br)c43)CC2)CC1 (stereo partly shown) [Compound 32.0] | 97 nM | –

Row | Structure (SMILES) | IC50 [1] | further results
18 | O=C1CCC(C(=O)N2CCC([C@H]3c4ncc(Br)cc4CCc4cc(Cl)cc(Br)c43)CC2)CC1 [Compound 33.0] | 5.1 nM | –
19 | O=C(C1CCC2(CC1)OCCO2)N1CCC([C@H]2c3ncc(Br)cc3CCc3cc(Cl)cc(Br)c32)CC1 [Compound 34.0] | 10.7 nM | –
20 | CON=C1CCC(C(=O)N2CCC([C@H]3c4ncc(Br)cc4CCc4cc(Cl)cc(Br)c43)CC2)CC1 (stereo partly shown) [Compound 35.0] | 8.2 nM | –
21 | CC(C)(C)OC(=O)NC1CCC(C(=O)N2CCC(C3c4ncc(Br)cc4CCc4cc(Cl)cc(Br)c43)CC2)CC1 (stereo not shown) [Compound 36.0] | 67 nM | –
22 | N[C@H]1CC[C@@H](C(=O)N2CCC([C@H]3c4ncc(Br)cc4CCc4cc(Cl)cc(Br)c43)CC2)CC1 [Compound 37.0] | 14 nM | –
23 | NC(=O)NC1CCC(C(=O)N2CCC(C3c4ncc(Br)cc4CCc4cc(Cl)cc(Br)c43)CC2)CC1 (stereo not shown) [Compound 38.0] | 6.2 nM | –
24 | CCOC(=O)C(=O)NC1CCC(C(=O)N2CCC(C3c4ncc(Br)cc4CCc4cc(Cl)cc(Br)c43)CC2)CC1 (stereo not shown) [Compound 39.0] | 23 nM | –
25 | CS(=O)(=O)NC1CCC(C(=O)N2CCC(C3c4ncc(Br)cc4CCc4cc(Cl)cc(Br)c43)CC2)CC1 (stereo not shown) [Compound 40.0] | 2.9 nM | –
26 | CC(C)(C)OC(=O)NC1CCCC(C(=O)N2CCC(C3c4ncc(Br)cc4CCc4cc(Cl)cc(Br)c43)CC2)C1 (stereo not shown) [Compound 43.0] | 150 nM | –
27 | NC1CCCC(C(=O)N2CCC(C3c4ncc(Br)cc4CCc4cc(Cl)cc(Br)c43)CC2)C1 (stereo not shown) [Compound 44.0] | 13.9 nM | –
28 | NC(=O)NC1CCCC(C(=O)N2CCC(C3c4ncc(Br)cc4CCc4cc(Cl)cc(Br)c43)CC2)C1 (stereo not shown) [Compound 45.0] | 17.6 nM | –
29 | CCOC(=O)C(=O)NC1CCCC(C(=O)N2CCC(C3c4ncc(Br)cc4CCc4cc(Cl)cc(Br)c43)CC2)C1 (stereo not shown) [Compound 46.0] | 34 nM | –
30 | NC(=O)C(=O)NC1CCCC(C(=O)N2CCC(C3c4ncc(Br)cc4CCc4cc(Cl)cc(Br)c43)CC2)C1 (stereo not shown) [Compound 49.1] | 15.6 nM | –
31 | O=C(C1CCC(O)CC1)N1CCC(C2c3ncc(Br)cc3CCc3cc(Cl)cc(Br)c32)CC1 (stereo not shown) [Compound 68.0] | > 160 nM | –
32 | CC(=O)OC1CCC(C(=O)N2CCC(C3c4ncc(Br)cc4CCc4cc(Cl)cc(Br)c43)CC2)CC1 (stereo not shown) [Compound 69.0] | 7.8 nM | IC50 (COS Cell): 30 nM
33 | O=C(C1CCC(O)CC1)N1CCC(C2c3ncc(Br)cc3CCc3cc(Cl)cc(Br)c32)CC1 (stereo not shown) [Compound 70.0] | 11 nM | –
